The source of these data is PMC12396559 (Virus Research, 2025).

SMILES strings stand for the structures. Where only a bound is given, the exact number is not on record here.

The subject of one data set is MPXV^Liberia (Clade IIa). The data set is described as follows: microbe, parasite or virus in culture. Type of data set: cell-based. The settings on record: Monkeypox virus, Vero C1008, 120 h, read-out: EC50 against MPXV^Liberia.
For a further data set, the system named is MPXV^Zr-599 (Clade I). The data set is described as follows: microbe, parasite or virus in culture. Type of data set: cell-based. The settings on record: Monkeypox virus, Vero C1008, 120 h, read-out: EC50 against MPXV^Zr-599.
For another data set, the system named is Huh7 cells. As to conditions: for concentration at which the agent showed cytotoxicity, reducing the number of cells: human.
The next data set relates to MPXV^SPL2A7 (Clade IIb). In words: microbe, parasite or virus in culture. It counts as cell-based. The settings on record: Monkeypox virus, Vero C1008, 120 h, read-out: EC50 against MPXV^SPL2A7.
Data set [1] relates to VeroE6 cells.
In data set [2] the test system is VeroE6 cells. This is another data set of the same source.
For the next data set, the system named is HeLa cells. As to conditions: for concentration at which the agent showed cytotoxicity, reducing the number of cells: human.
Data set [3] is described as follows: in vitro. The settings on record: human.
A short description of data set [4]: in vitro. The settings on record: human. This is another data set of the same source.
The subject of another data set is clade II mpox. As to conditions: human, in vivo; cited from earlier work.
The subject of another data set is clade I mpox. The settings on record: human, in vivo; cited from earlier work.
Data set [5] can be described thus: in vitro. As to conditions: African green monkey.

As usually defined, the EC50 is the concentration giving half of the maximal effect. `CCCCCCCCCCCCCCCCOCCCOP(=O)(O)CO[C@H](CO)Cn1ccc(N)nc1=O` [Brincidofovir, brincidofovir]: the concentration giving a half-maximal response (EC50) in the data set on MPXV^Liberia (Clade IIa) came to 2010 ± 850 nM; with MPXV^Zr-599 (Clade I), 2130 ± 950 nM; in the data set with MPXV^SPL2A7 (Clade IIb), 2030 ± 320 nM. The “concentration at which the agent showed cytotoxicity, reducing the number of cells” value in the data set with Huh7 cells and in the data set with HeLa cells was 10 to 100 µM throughout. Besides, the “cell number on day 5 subtracted with cell number on Day 0” value with VeroE6 cells [1] is listed as “below zero”. The “amount of F-actin (images)” value in the data set on VeroE6 cells [2] is on record as “markedly reduced”. The “protein production (F-actin quantification), in words” value (shortened to “protein production … in words”) in the data set on VeroE6 cells [2] is recorded as “virtually totally blocked”.

As for `Nc1ccn(C[C@@H](CO)OCP(=O)(O)O)c(=O)n1` [Cidofovir, cidofovir], the results for the EC50 in the data set with MPXV^Liberia (Clade IIa), with MPXV^Zr-599 (Clade I) and with MPXV^SPL2A7 (Clade IIb) were 15200 ± 3020 nM, 17300 ± 5030 nM and 12200 ± 1190 nM, respectively. Also, the “concentration at which the agent showed cytotoxicity, reducing the number of cells” value in the data set on Huh7 cells and with HeLa cells was 100 µM in each case. In addition, the “cell number on day 5 subtracted with cell number on Day 0” value in the data set on VeroE6 cells [1] was “below zero”. Further, the CC50 in “in vitro [3]” and in “in vitro [4]” was greater than 100000 nM each time. In addition, the “protein production … in words” value in the data set on VeroE6 cells [2] was “virtually totally blocked”.

Take `Nc1ccn([C@@H]2O[C@H](CO)[C@@H](O)C2(F)F)c(=O)n1` [Gemcitabine, gemcitabine]: the EC50 with MPXV^Liberia (Clade IIa) is 10 ± 10 nM; in the data set on MPXV^Zr-599 (Clade I), 20 ± 20 nM; in the data set with MPXV^SPL2A7 (Clade IIb) it was 20 ± 20 nM. In the data set with VeroE6 cells [1], the “number of cells (DAPI)” value is listed as “significant reduction”. Besides, the “amount of F-actin (images)” value in the data set with VeroE6 cells [2] is given as “greatly reduced”. For the same molecule, in the data set with VeroE6 cells [2], the “protein production … in words” value is given as “totally blocked”.

Turning to `O=C(NN1C(=O)[C@@H]2[C@@H]3C=C[C@@H]([C@H]4C[C@@H]34)[C@@H]2C1=O)c1ccc(C(F)(F)F)cc1` [Tecovirimat, tecovirimat], the clinical efficacy entry in the data set with clade II mpox is recorded as “no significant efficacy”. Moreover, the half-maximal effective concentration (EC50) came to 4 ± 2 nM with MPXV^Liberia (Clade IIa), 5 ± 1 nM in the data set on MPXV^Zr-599 (Clade I) and 1 ± 2 nM with MPXV^SPL2A7 (Clade IIb). Besides, the “cytostaticity and/or cytotoxicity (in words)” value in the data set with Huh7 cells and in the data set with HeLa cells was “without cytostaticity and/or cytotoxicity” each time. Besides, the “concentration at which production of virally-encoded proteins was blocked (and above)” value in the data set on MPXV^SPL2A7 was no less than 0.01 µM. Further, the “number of the cells (nuclei stained with DAPI)” value in the data set on MPXV^SPL2A7 is listed as “no significant reduction”. Moreover, the “duration of mpox lesions” value with clade I mpox is listed as “failed to shorten the duration of mpox lesions”. Also, the CC50 in “in vitro [3]”, in the data set “in vitro [5]” and in the data set “in vitro [4]” was greater than 100000 nM each time. Also, the “suppression of protein production (F-actin quantification)” value with VeroE6 cells [2] is given as “about 50%”.

With `O=c1[nH]c(=O)n([C@H]2C[C@H](O)[C@@H](CO)O2)cc1C(F)(F)F` [Trifluridine, trifluridine], the results for the concentration giving a half-maximal response (EC50) in the data set with MPXV^Liberia (Clade IIa), in the data set with MPXV^Zr-599 (Clade I) and with MPXV^SPL2A7 (Clade IIb) were 3480 ± 1820 nM, 3710 ± 1450 nM and 6170 ± 1260 nM, respectively.
